Publication PMC137588 (BMC Neuroscience, 2002)
Where two headings read alike, the source gives them in different places.

How the values were obtained:
[1] = molecular target: T1, mouse δ opioid receptor (Mus musculus, UniProt P32300); assay: cell-based; type: cell-based; conditions: for Emax: HEK293, read-out: Max Inhibition %
[2] = molecular target: T1, mouse δ opioid receptor; type: binding; conditions: read-out: AFFINITY Ki
[3] = test system: μ opioid receptors; conditions: ref Gharagozlou et al. unpublished results; cited from earlier work
[4] = test system: μ opioid receptors; conditions: ref Gharagozlou et al. unpublished results; cited from earlier work; remark: listed apart in the source
[5] = molecular target: T1, mouse δ opioid receptor

T1 sequence (P32300 whole entry): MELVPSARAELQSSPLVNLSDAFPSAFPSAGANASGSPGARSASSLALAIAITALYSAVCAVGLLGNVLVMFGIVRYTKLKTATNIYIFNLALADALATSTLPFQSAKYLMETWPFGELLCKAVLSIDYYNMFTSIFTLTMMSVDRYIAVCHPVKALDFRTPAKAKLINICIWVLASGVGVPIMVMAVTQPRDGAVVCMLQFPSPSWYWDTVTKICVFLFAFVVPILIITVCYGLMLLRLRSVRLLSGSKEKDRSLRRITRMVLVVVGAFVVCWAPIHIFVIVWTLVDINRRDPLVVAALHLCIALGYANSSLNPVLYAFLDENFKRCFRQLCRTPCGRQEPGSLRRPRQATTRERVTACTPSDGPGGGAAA

With `C[C@H]1[C@H]2Cc3ccc(O)cc3[C@]1(C)CCN2C` [Metazocine] the “Agonist efficacy classification at δ opioid receptors” value [1] was “super agonists”, the Emax [1] was 77 ± 4% and the IC50 ([1]; IC50 ± SEM) was 159 ± 70 nM.
Work on `C[C@H]1[C@H]2Cc3ccc(O)cc3[C@]1(C)CCN2CC1CC1` [Cyclazocine] yielded an Emax [1] of 53 ± 2% and an IC50 ([1]; IC50 ± SEM) of 6 ± 3 nM.
Work on `C=CCN1CCC2(C)c3cc(O)ccc3CC1C2C` (centres unmarked) [SKF 10047] yielded an Emax [1] of 68 ± 9% and an IC50 ([1]; IC50 ± SEM) of 184 ± 121 nM.
With `CN1CC[C@]2(C)c3cc(O)ccc3C[C@H]1C2(C)CCC(=O)CCC1CCCC1` (some centres unmarked) [WIN 44,441] the “Max Inhibition %” value [1] was 54 ± 6 %, the IC50 ([1]; read-out: IC50 ± SEM) was 40 ± 25 nM and the Ki [2] was 2.6 ± 0.9 nM. The “affinity at μ opioid receptors” value [3] was “less than 1 nM” and the “activation profile at μ opioid receptors” value [4] was “antagonist”.
`C[C@@]12CCCCC[C@@H](Cc3ccc(O)cc31)[C@@H]2N` [Dezocine] gave an Emax [1] of 39% and an IC50 ([1]; IC50 ± SEM) of 477 ± 152 nM.
With `C=CCN1CC[C@]23c4c5ccc(O)c4O[C@H]2[C@@H](O)C=C[C@H]3[C@H]1C5` [Nalorphine] the “Classification as antagonist at δ opioid receptor” value [5] was “Antagonist”.
With `C=C1C[C@H](C)[C@H]2[C@H]3Cc4ccc(O)cc4[C@@]2(CCN3CC2CCC2)C1` [Xorphanol] the “Agonist efficacy classification at δ opioid receptors” value [1] was “super agonists”, the “Max Inhibition %” value [1] was 76 ± 4^$$ ## % and the IC50 ([1]; read-out: IC50 ± SEM) was 8 ± 2 nM. For the same compound, the Ki [2] was 1 ± 0.2 nM, the “affinity at μ opioid receptors” value [3] was “less than 1 nM” and the “activation profile at μ opioid receptors” value [4] was “very weak agonist”.
Work on `Oc1ccc2c(c1)[C@@]13CCCC[C@@]1(O)[C@@H](C2)N(CC1CCC1)CC3` [Butorphanol] yielded an Emax [1] of 64 ± 4% and an IC50 ([1]; IC50 ± SEM) of 61 ± 12 nM.
